Test results taken from ChEMBL document CHEMBL5154643, “Design of a "Two-in-One" Mutant-Selective Epidermal Growth Factor Receptor Inhibitor That Spans the Orthosteric and Allosteric Sites” (J Med Chem, 2022).

Assay: Apparent permeability across apical to basolateral side in human Caco-2 cells monolayer
Format: ADME, cell-based

SMILES	Papp
C=CC(=O)Nc1ccc(OC)c(Nc2cc(-c3[nH]c(SC)nc3-c3cccc(NC(=O)c4c(F)ccc(O)c4CN4C(=O)c5ccccc5C4=O)c3)ccn2)c1	Impermeable
CSc1nc(-c2cccc(NC(=O)c3c(F)ccc(O)c3CN3C(=O)c4ccccc4C3=O)c2)c(-c2ccnc(NC(C)=O)c2)[nH]1	Impermeable
